pIC50: −log10 of the molar value. Read-outs that look alike come from different tables or passages of the source.
Legend:
[1] = target: B-Raf (V600E) (h) (Homo sapiens, UniProt P15056, V600E); test: Kinase inhibition assay B-Raf (V600E) (h), radiometric 33P-ATP filter assay; type: biochemical; conditions: read-out: IC50(nM) BRAF^V600E
Method: (§1) b-Raf (V599E) (h) was incubated with 25 mM Tris/HCl pH 7.5, 0.2 mM EGTA, 10 mM DTT, 0.01% Triton X-100, 0.5 mM, sodium orthovandate, 0.5 mM […], 1% glycerol, 34 nM unactive MEK1, 69 nM unactive MAPK2, 0.5 mg/mL myelin basic protein, and 10 mM Magnesium acetate and […] (specific activity and concentration as required). The reaction was initiated by the addition of the Mg/ATP mix. After incubation for 40 minutes at room temperature, the reaction was stopped by the addition of phosphoric acid to a concentration of 0.5%. 10 μL of the reaction was then spotted onto a P30 filtermat and washed four times for 4 minutes in 0.425% phosphoric acid and once in methanol prior to drying and scintillation counting. Similar protocols were used for other kinase assays employing the kinase of interest to generate the data in Table 1.

[2] = target: T1, BRAF^V600E (Homo sapiens, UniProt P15056, V600E); test: Cellular degradation assay, Western blot of BRAF^V600E; type: cell-based
T1 construct: A375 or SK-Mel-28 cells were obtained from ATCC; host or cells: A375 or SK-Mel-28
Method: (§2) Cell culture and compound treatment: A375 or SK-Mel-28 cells were obtained from ATCC and cultured in Dulbecco's Modified Eagle Media (DMEM) supplemented with 10% FBS, penicillin and streptomycin, at 37° C., 5% CO2. Cells grown in 6-well plates were treated for 24 hours with test compounds (solubilized in DMSO) or 0.1% DMSO vehicle control. Cells were harvested by first washing with 1× phosphate-buffered saline (PBS), then scrapping into 1 ml of PBS supplemented with 1 mM phenylmethylsulfonylflouride (PMSF). Cell pellets were obtained after a centrifugation at 300-350×g for 2 min, and immediately snap frozen in liquid nitrogen.
(§3) Cell lysis and Western blot analysis: Cell pellets were thawed and lysed by pipetting in lysis buffer (50 mM HEPES (pH 7.4), 150 mM NaCl, 5 mM EDTA, 0.5% NP-40, 5 mM NaF, 10% glycerol), with Roche protease inhibitor cocktail (5056489001) and phosphatase inhibitor cocktail PhosStop (4906845001) added fresh before use. The whole cell lysate was clarified by centrifugation at 15,000-20,000×g for 20 min and supernatant was collected. Total protein concentration in the clarified lysate was determination by Bradford assay (Bio-Rad), and 30-50 ug of protein was separated through SDS-PAGE, transferred onto nitrocellulose membrane and subject to standard immunoblotting protocol. Band intensities were quantified by Bio-Rad Image Lab software. Antibodies to B-Raf (sc-5284), A-Raf (sc-166771), phosphor MEK1/2, pS218/222 (sc-7995), phosphor ERK1/2 (sc-7383) were purchased from Santa Cruz; C-Raf (9422), MEK1/2 (9122), ERK1/2 (9102) from Cell Signaling; p27 (610242) from BD Biosciences. Antibody to the loading control α-tubulin was obtained from Sigma-Aldrich (6199).

[3] = target: T2, CRAF (Homo sapiens, UniProt P04049); test: Kinase inhibition assay CRAF (similar protocol); type: biochemical
Method: as §1

[4] = target: T3, ARAF (Homo sapiens, UniProt P10398); test: Kinase inhibition assay ARAF (similar protocol); type: biochemical
T3 sequence (P10398 1-606): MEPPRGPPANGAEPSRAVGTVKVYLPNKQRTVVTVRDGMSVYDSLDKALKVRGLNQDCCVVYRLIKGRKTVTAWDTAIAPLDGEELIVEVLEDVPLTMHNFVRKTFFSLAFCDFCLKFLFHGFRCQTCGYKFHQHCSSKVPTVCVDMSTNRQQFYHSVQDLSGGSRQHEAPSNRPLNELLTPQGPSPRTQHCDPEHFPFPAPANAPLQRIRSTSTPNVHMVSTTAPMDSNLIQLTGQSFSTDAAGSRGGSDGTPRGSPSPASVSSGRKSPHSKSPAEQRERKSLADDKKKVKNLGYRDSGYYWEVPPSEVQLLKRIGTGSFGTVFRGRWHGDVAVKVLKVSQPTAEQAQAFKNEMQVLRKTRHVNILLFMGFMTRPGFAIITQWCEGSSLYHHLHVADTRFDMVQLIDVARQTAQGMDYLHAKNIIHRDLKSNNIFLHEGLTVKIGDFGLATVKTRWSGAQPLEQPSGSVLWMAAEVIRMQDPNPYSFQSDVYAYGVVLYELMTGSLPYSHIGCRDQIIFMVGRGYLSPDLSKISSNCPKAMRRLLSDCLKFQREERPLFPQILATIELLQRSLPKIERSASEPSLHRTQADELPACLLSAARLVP
Method: as §1

[5] = target: BRAF (Homo sapiens, UniProt P15056); test: Kinase inhibition assay BRAF (similar protocol); type: biochemical
Method: as §1

[6] = test system: MEK and ERK kinase phosphorylation; test: Immunoblot of downstream MEK and ERK kinase phosphorylation in A375 cells; type: cell-based; conditions: A375 human melanoma cells, 24 hrs
Method: as §2
as §3, with “Antibodies to B-Raf (sc-5284), A-Raf (sc-166771), phosphor MEK1/2, pS218/222 (sc-7995), phosphor ERK1/2 (sc-7383) were purchased from Santa Cruz; C-Raf (9422), MEK1/2 (9122), ERK1/2 (9102) from Cell Signaling; p27 (610242) from BD Biosciences. Antibody to the loading control α-tubulin was obtained from Sigma-Aldrich (6199).” left out

[7] = target: T3, ARAF; test: Cellular degradation assay, Western blot of ARAF; type: cell-based; design: host or cells: A375; conditions: A375 human melanoma cells, 24 hrs; negative control 100 nM, PROTAC 0 to 4000 nM
Method: as §2
as §3, with “Antibodies to B-Raf (sc-5284), A-Raf (sc-166771), phosphor MEK1/2, pS218/222 (sc-7995), phosphor ERK1/2 (sc-7383) were purchased from Santa Cruz; C-Raf (9422), MEK1/2 (9122), ERK1/2 (9102) from Cell Signaling; p27 (610242) from BD Biosciences. Antibody to the loading control α-tubulin was obtained from Sigma-Aldrich (6199).” left out

[8] = target: T2, CRAF; test: Cellular degradation assay, Western blot of CRAF; type: cell-based; design: host or cells: A375; conditions: A375 human melanoma cells, 24 hrs; negative control 100 nM, PROTAC 0 to 4000 nM
Method: as §2
as §3, with “Antibodies to B-Raf (sc-5284), A-Raf (sc-166771), phosphor MEK1/2, pS218/222 (sc-7995), phosphor ERK1/2 (sc-7383) were purchased from Santa Cruz; C-Raf (9422), MEK1/2 (9122), ERK1/2 (9102) from Cell Signaling; p27 (610242) from BD Biosciences. Antibody to the loading control α-tubulin was obtained from Sigma-Aldrich (6199).” left out

[9] = A375 human melanoma cells, 24 hrs
[10] = Table 1, cells treated 24 hours, Western blot
[11] = Table 1, cells treated 24 hours, Western blot, read-out: DC50(nM) BRAF^V600E

T1 sequence (P15056 whole entry V600E): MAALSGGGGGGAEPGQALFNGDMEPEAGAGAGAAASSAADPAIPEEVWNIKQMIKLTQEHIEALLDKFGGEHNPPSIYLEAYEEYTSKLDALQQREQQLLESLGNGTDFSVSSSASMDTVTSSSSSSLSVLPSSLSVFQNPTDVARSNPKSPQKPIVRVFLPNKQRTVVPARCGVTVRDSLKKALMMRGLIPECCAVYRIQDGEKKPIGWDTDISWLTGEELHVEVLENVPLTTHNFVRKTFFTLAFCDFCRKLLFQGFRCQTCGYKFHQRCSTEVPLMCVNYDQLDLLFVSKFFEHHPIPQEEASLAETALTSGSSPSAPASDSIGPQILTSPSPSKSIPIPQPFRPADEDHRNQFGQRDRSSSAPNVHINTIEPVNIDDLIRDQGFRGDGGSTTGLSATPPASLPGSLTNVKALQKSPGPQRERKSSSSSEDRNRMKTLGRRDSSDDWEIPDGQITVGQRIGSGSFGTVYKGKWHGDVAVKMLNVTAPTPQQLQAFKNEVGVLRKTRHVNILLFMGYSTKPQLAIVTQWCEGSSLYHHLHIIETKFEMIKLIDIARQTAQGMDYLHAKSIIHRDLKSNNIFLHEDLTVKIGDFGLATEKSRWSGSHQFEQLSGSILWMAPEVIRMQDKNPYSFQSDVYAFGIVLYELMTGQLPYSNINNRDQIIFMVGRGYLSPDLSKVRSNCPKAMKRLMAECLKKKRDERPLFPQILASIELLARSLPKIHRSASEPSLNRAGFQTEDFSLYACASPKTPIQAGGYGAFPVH
Sequence of B-Raf (V600E) (h) (P15056 whole entry V600E): as above
T2 sequence (P04049 whole entry): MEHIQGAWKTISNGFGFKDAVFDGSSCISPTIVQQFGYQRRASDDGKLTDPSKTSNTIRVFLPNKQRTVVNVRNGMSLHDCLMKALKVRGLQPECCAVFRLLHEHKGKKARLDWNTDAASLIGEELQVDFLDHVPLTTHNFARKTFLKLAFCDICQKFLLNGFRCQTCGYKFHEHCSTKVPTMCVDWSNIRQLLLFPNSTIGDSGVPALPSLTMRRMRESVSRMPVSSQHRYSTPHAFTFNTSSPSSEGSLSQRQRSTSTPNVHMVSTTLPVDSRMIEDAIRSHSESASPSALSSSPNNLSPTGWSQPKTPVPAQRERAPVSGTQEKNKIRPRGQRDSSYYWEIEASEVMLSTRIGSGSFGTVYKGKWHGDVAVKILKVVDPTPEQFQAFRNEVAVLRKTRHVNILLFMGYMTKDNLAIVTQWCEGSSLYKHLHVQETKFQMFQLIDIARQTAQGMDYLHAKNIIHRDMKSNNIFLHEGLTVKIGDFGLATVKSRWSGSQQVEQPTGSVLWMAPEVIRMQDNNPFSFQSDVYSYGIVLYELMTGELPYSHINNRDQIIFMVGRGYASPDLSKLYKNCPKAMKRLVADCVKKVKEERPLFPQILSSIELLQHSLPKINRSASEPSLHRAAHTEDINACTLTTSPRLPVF
Sequence of BRAF (P15056 whole entry): as the sequence (P15056 whole entry V600E) above, with E600V counted along it

Compound | IC50 [1] [nM] | degradation of BRAF^V600E by immunoblot (FIGS. 4 and 5) [2, 9] | DCmax(%) BRAF^V600E [2, 10] [%] | DC50 [2, 11] [nM] | IC50 [3] [nM] | IC50 [4] [nM] | IC50 [5] [nM] | inhibition of downstream MEK and ERK kinase phosphorylation (FIG. 3C) ([6]; negative control 100 nM, PROTAC 0 to 4000 nM) | pIC50 ([6]; A-375, read-out: BRAF^V600E IC50, inhibition of downstream MEK and ERK kinase phosphorylation, 0 to 4000 nM) | degradation activity on ARAF (FIG. 3C) [7] | DCmax, degradation of BRAF^V600E kinase (FIG. 3C) ([2]; A375 human melanoma cells, 24 hrs, 0 to 4000 nM) [%] | DC50 ([2]; A375 human melanoma cells, 24 hrs, 0 to 4000 nM, read-out: DC50, degradation of BRAF^V600E kinase (FIG. 3C)) [nM] | degradation activity on CRAF (FIG. 3C) [8] | degradation of BRAF^V600E by immunoblot (FIG. 3A) ([2]; dabrafenib 20 nM, PROTAC inhibitors 50 nM) | degradation of BRAF^V600E by immunoblot (FIGS. 4 and 5) ([2]; A375 human melanoma cells, 24 hrs, listed as Pmd-PEG3-Dabrafenib#1)
CCCS(=O)(=O)Nc1ccc(F)c(-n2cc(-c3cncnc3)c3nc(N(C)C4CCN(C(=O)CCOCCOCCOCCOCCOCCOCCNc5cccc6c5C(=O)N(C5CCC(=O)NC5=O)C6=O)CC4)ccc32)c1F (centres unmarked) [Entry 19, N-(3-(5-((1-(1-((2-(2,6-dioxopiperidin-3-yl)-1,3-dioxoisoindolin-4-yl)amino)-3,6,9,12,15,18-hexaoxaheneicosan-21-oyl)piperidin-4-yl)(methyl)amino)-3-(pyrimidin-5-yl)-1H-pyrrolo[3,2-b]pyridin-1-yl)-2,4-difluorophenyl)propane-1-sulfonamide] | 83 | Degradation of BRAF^V600E was observed | 60 | 100 | 542 | 6550 |  |  |  |  |  |  |  |  | 
CCCS(=O)(=O)Nc1ccc(F)c(-n2cc(-c3cncnc3)c3nc(N(C)C4CCN(CC)CC4)ccc32)c1F [Entry 15, N-[3-[5-[(1-ethylpiperidin-4-yl)-methylamino]-3-pyrimidin-5-ylpyrrolo[3,2-b]pyridine-1-yl]-2,4-difluorophenyl]propane-1-sulfonamide, reference compound] | 31 |  | 0 |  | 64 | 323 |  |  |  |  |  |  |  |  | 
CCCS(=O)(=O)Nc1ccc(F)c(-n2cc(-c3cncnc3)c3nc(N(C)C4CCN(C(=O)CCOCCOCCOCCOCCOCCNc5cccc6c5C(=O)N(C5CCC(=O)NC5=O)C6=O)CC4)ccc32)c1F (centres unmarked) [Entry 18, N-(3-(5-((1-(1-((2-(2,6-dioxopiperidin-3-yl)-1,3-dioxoisoindolin-4-yl)amino)-3,6,9,12,15-pentaoxaoctadecan-18-oyl)piperidin-4-yl)(methyl)amino)-3-(pyrimidin-5-yl)-1H-pyrrolo[3,2-b]pyridin-1-yl)-2,4-difluorophenyl)propane-1-sulfonamide] | 25 | Degradation of BRAF^V600E was observed | 73 | 50 | 223 | 3620 | 66 |  |  |  |  |  |  |  | 
CCCS(=O)(=O)Nc1ccc(F)c(-n2cc(-c3cncnc3)c3nc(N(C)C4CCN(C(=O)CCOCCOCCOCCNc5cccc6c5C(=O)N(C5CCC(=O)NC5=O)C6=O)CC4)ccc32)c1F (centres unmarked) [Entry 16, N-(3-(5-((1-(3-(2-(2-(2-((2-(2,6-dioxopiperidin-3-yl)-1,3-dioxoisoindolin-4-yl)amino)ethoxy)ethoxy)ethoxy)propanoyl)piperidin-4-yl)(methyl)amino)-3-(pyrimidin-5-yl)-1H-pyrrolo[3,2-b]pyridin-1-yl)-2,4-difluorophenyl)propane-1-sulfonamide] | 65 | Degradation of BRAF^V600E was observed | 60 | 10 | 532 | > 10000 |  |  |  |  |  |  |  |  | 
CCCS(=O)(=O)Nc1ccc(F)c(-n2cc(-c3cncnc3)c3nc(N(C)C4CCN(C(=O)CCOCCOCCOCCOCCNc5cccc6c5C(=O)N(C5CCC(=O)NC5=O)C6=O)CC4)ccc32)c1F (centres unmarked) [Entry 17, N-(3-(5-((1-(1-((2-(2,6-dioxopiperidin-3-yl)-1,3-dioxoisoindolin-4-yl)amino)-3,6,9,12-tetraoxapentadecan-15-oyl)piperidin-4-yl)(methyl)amino)-3-(pyrimidin-5-yl)-1H-pyrrolo[3,2-b]pyridin-1-yl)-2,4-difluorophenyl)propane-1-sulfonamide] | 12 |  | 82 | 15 | 167 | 2220 | 58 | inhibition of downstream MEK and ERK kinase phosphorylation | 7.70 | not ARAF and CRAF | 80 | 20 | not ARAF and CRAF |  | 
CCCS(=O)(=O)Nc1ccc(F)c(-n2cc(-c3cncnc3)c3nc(N(C)C4CCN(C(=O)CCC(=O)NCCCOCCOCCOCCCNc5cccc6c5C(=O)N(C5CCC(=O)NC5=O)C6=O)CC4)ccc32)c1F (centres unmarked) [Entry 21, 4-(4-((1-(2,6-Difluoro-3-(propylsulfonamido)phenyl)-3-(pyrimidin-5-yl)-1H-pyrrolo[3,2-b]pyridin-5-yl)(methyl)amino)piperidin-1-yl)-N-(3-(2-(2-(3-((2-(2,6-dioxopiperidin-3-yl)-1,3-dioxoisoindolin-4-yl)amino)propoxy)ethoxy)ethoxy)propyl)-4-oxobutanamide] | 82 | Degradation of BRAF^V600E was observed | 29 | 20 | 468 | 3340 |  |  |  |  |  |  |  |  | 
CC(C)(C)c1nc(-c2cccc(NS(=O)(=O)c3c(F)cccc3F)c2F)c(-c2ccnc(N)n2)s1 [dabrafenib, reference compound] |  |  |  |  |  |  |  |  |  |  |  |  |  | no degradation | 
CCCS(=O)(=O)Nc1ccc(F)c(-n2cc(-c3cncnc3)c3nc(N(C)C4CCN(C(=O)CCOCCOCCOCCNc5cccc6c5C(=O)N(C5CCC(=O)NC5=O)C6=O)CC4)ccc32)c1F (centres unmarked) [Entry 2] | 47 |  | 0 |  | 22 | > 10000 |  |  |  |  |  |  |  |  | No degradation
CCCS(=O)(=O)Nc1ccc(F)c(-n2cc(-c3cncnc3)c3nc(N(C)C4CCN(C(=O)CCOCCOCCOCCOCCOCCOCCOCCOCCNc5cccc6c5C(=O)N(C5CCC(=O)NC5=O)C6=O)CC4)ccc32)c1F (centres unmarked) [Entry 20, N-(3-(5-((1-(1-((2-(2,6-dioxopiperidin-3-yl)-1,3-dioxoisoindolin-4-yl)amino)-3,6,9,12,15,18,21,24-octaoxaheptacosan-27-oyl)piperidin-4-yl)(methyl)amino)-3-(pyrimidin-5-yl)-1H-pyrrolo[3,2-b]pyridin-1-yl)-2,4-difluorophenyl)propane-1-sulfonamide] | 85 | Degradation of BRAF^V600E was observed | 40 | 75 | 592 | 4910 |  |  |  |  |  |  |  |  | 
